How the values were obtained:
Assay in all cases: relative viability (nuclei count vs DMSO), 5 days (fraction); higher = more cells survive
[1] = compound: C1COCCN1C2=NC(=NC3=C2OC4=C3C=CC=N4)C5=CC(=CC=C5)NC(=O)C6=CN=C(C=C6)N + CC(C)C[C@H](NC(=O)[C@H](Cc1ccccc1)NC(=O)c1cnccn1)B(O)O [Bortezomib] (partner 0.002 µM)
In short: (§1)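 After 5 days of treatment, lung cancer cells in 1536-well plates were fixed and stained in a single step (final 0.05% Triton X-100, 1% formaldehyde, 1 ug/ml Hoechst) and their nuclei counted on 4× images. Treatment had been applied by pin tool the day after seeding as one drug alone or as a fixed anchor-drug dose with five library-drug doses (not always all listed) in √10 steps. Relative viability is the nuclei count of treated wells divided by that of vehicle wells, and values are medians of duplicate plates.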

SGI-1776 + Dasatinib = compound: CN1CCC(CNc2ccc3ncc(-c4cccc(OC(F)(F)F)c4)n3n2)CC1 [SGI-1776] + Cc1nc(Nc2ncc(C(=O)Nc3c(C)cccc3Cl)s2)cc(N2CCN(CCO)CC2)n1 [Dasatinib] (partner 0.075 µM)
In short: as §1

SGI-1776 + Crizotinib = compound: CN1CCC(CNc2ccc3ncc(-c4cccc(OC(F)(F)F)c4)n3n2)CC1 [SGI-1776] + C[C@@H](Oc1cc(-c2cnn(C3CCNCC3)c2)cnc1N)c1c(Cl)ccc(F)c1Cl [Crizotinib] (partner 1 µM)
In short: as §1

SGI-1776 + Bortezomib = compound: CN1CCC(CNc2ccc3ncc(-c4cccc(OC(F)(F)F)c4)n3n2)CC1 [SGI-1776] + CC(C)C[C@H](NC(=O)[C@H](Cc1ccccc1)NC(=O)c1cnccn1)B(O)O [Bortezomib] (partner 0.002 µM)
In short: as §1

| Cell Line | relative viability ([1]; first compound 0.02 µM) | relative viability ([1]; first compound 0.06325 µM) | relative viability ([1]; first compound 0.2 µM) | relative viability ([1]; first compound 0.6325 µM) | relative viability ([1]; first compound 2 µM) | relative viability (SGI-1776 + Dasatinib; first compound 0.08 µM) | relative viability (SGI-1776 + Dasatinib; first compound 0.8 µM) | relative viability (SGI-1776 + Dasatinib; first compound 2.53 µM) | relative viability (SGI-1776 + Dasatinib; first compound 8 µM) | relative viability (SGI-1776 + Crizotinib; first compound 0.08 µM) | relative viability (SGI-1776 + Crizotinib; first compound 0.8 µM) | relative viability (SGI-1776 + Crizotinib; first compound 2.53 µM) | relative viability (SGI-1776 + Crizotinib; first compound 8 µM) | relative viability (SGI-1776 + Bortezomib; first compound 0.08 µM) | relative viability (SGI-1776 + Bortezomib; first compound 0.8 µM) | relative viability (SGI-1776 + Bortezomib; first compound 2.53 µM) | relative viability (SGI-1776 + Bortezomib; first compound 8 µM) |
| --- | --- | --- | --- | --- | --- | --- | --- | --- | --- | --- | --- | --- | --- | --- | --- | --- | --- |
| NCI-H838 | 0.708 | 0.872 | 0.564 | 0.659 | 0.469 | 0.282 | 0.275 | 0.256 | 0.257 | 0.885 | 0.854 | 0.689 | 0.319 | 0.848 | 0.973 | 0.764 | 0.353 |
| HARA | 1.14 | 1.35 | 1.24 | 1 | 0.875 | 0.31 | 0.178 | 0.207 | 0.289 | 1.17 | 1.17 | 1.01 | 0.775 | 1.2 | 1.21 | 1.01 | 1.05 |
| NCI-H23 | 1.15 | 1.44 | 1.15 | 0.899 | 0.446 | 0.819 | 0.84 | 0.813 | 0.831 | 0.747 | 0.368 | 0.383 | 0.256 | 0.997 | 1.09 | 1.07 | 0.991 |
| LOU-NH91 | 0.511 | 0.474 | 0.481 | 0.489 | 0.461 | 0.571 | 0.597 | 0.555 | 0.43 | 0.776 | 0.747 | 0.693 | 0.593 | 0.482 | 0.565 | 0.489 | 0.458 |
| LCLC-103H | 0.969 | 1.24 | 1 | 0.978 | 0.722 | 0.527 | 0.479 | 0.535 | 0.432 | 1.03 | 1.04 | 1.03 | 0.958 | 1.06 | 1.05 | 1.01 | 0.859 |
| SW 1573 | 1.16 | 0.904 | 1.01 | 0.888 | 0.474 | 0.457 | 0.456 | 0.457 | 0.295 | 0.904 | 0.835 | 0.624 | 0.395 | 1.03 | 0.872 | 1.07 | 0.935 |
| EKVX | 1.09 | 1.19 | 1.02 | 1.11 | 0.585 | 0.475 | 0.547 | 0.599 | 0.413 | 0.847 | 1.01 | 0.977 | 0.882 | 0.98 | 1.05 | 1.14 | 0.972 |
| IA-LM |  | 0.78 | 0.537 | 0.645 | 0.39 |  |  |  |  | 0.514 | 0.989 |  | 0.69 | 0.844 | 0.736 | 0.918 | 0.877 |
| HCC-827 | 1.07 | 1.07 | 1.17 | 1.15 | 1.08 | 0.352 | 0.33 | 0.255 | 0.227 | 0.956 | 0.975 | 0.985 | 0.915 | 1.11 | 0.984 | 1.05 | 1.04 |
| NCI-H661 | 0.772 | 0.747 | 0.741 | 0.657 | 0.63 | 1 | 0.979 | 0.837 | 0.692 | 0.932 | 1.02 | 1.03 | 0.964 | 0.963 | 0.858 | 0.833 | 0.649 |
| CAL-12T | 0.935 | 0.98 | 0.861 | 0.871 | 0.84 | 0.633 | 0.351 | 0.348 | 0.246 | 0.682 | 0.327 | 0.254 | 0.232 | 1.35 | 0.982 | 0.918 | 0.867 |
| NCI-H2342 |  |  |  |  |  | 0.364 | 0.326 | 0.289 | 0.301 |  |  |  |  |  |  |  |  |
| SW 900 |  |  |  |  |  | 0.542 | 0.387 | 0.56 | 0.301 |  |  |  |  |  |  |  |  |
| LC-2-ad | 1.09 | 1.05 | 0.998 | 1.03 | 0.898 | 0.726 | 0.521 | 0.397 | 0.402 | 0.53 | 0.47 | 0.414 | 0.36 | 1.06 | 0.976 | 1.03 | 0.987 |
| EPLC-272H | 0.965 | 0.994 | 0.816 | 0.931 | 0.558 | 0.381 | 0.365 | 0.264 | 0.314 | 0.832 | 0.891 | 0.909 | 0.772 | 0.939 | 1.06 | 0.927 | 0.739 |
| A-427 | 0.981 | 1.02 | 0.945 | 0.91 | 0.652 | 0.736 | 0.693 | 0.665 | 0.499 | 0.849 | 0.92 | 0.974 | 0.601 | 1.04 | 1.03 | 0.931 | 0.749 |
| NCI-H650 | 0.773 | 0.906 | 0.75 | 0.909 | 0.529 | 0.492 | 0.497 | 0.434 | 0.37 | 0.764 | 0.704 | 0.382 | 0.37 | 0.95 | 0.755 | 0.836 | 0.622 |
| NCI-H1993 | 1.2 | 1.13 | 0.967 | 0.891 | 0.893 | 0.584 | 0.651 | 0.55 | 0.528 | 0.917 | 0.894 | 0.858 | 0.725 | 1.21 | 1.14 | 0.967 | 0.803 |
| NCI-H358 |  |  |  |  |  | 0.197 | 0.186 | 0.158 | 0.133 | 0.53 | 0.393 | 0.244 | 0.292 |  |  |  |  |
| RERF-LC-KJ | 1.04 | 1.21 | 1.04 | 1.05 | 0.798 | 0.803 | 0.688 | 0.7 | 0.447 | 0.886 | 0.786 | 0.836 | 0.865 | 1.1 | 1.08 | 0.956 | 1.04 |
| NCI-H1915 | 1.07 | 1.08 | 1.03 | 1.02 | 0.423 | 0.315 | 0.273 | 0.29 | 0.261 | 0.945 | 0.864 | 0.833 | 0.918 | 1.01 | 0.985 | 0.932 | 0.935 |
